Source: patent US20250213560A1, “NITROGEN-CONTAINING HETEROCYCLIC COMPOUNDS HAVING PHENYL GROUP AND USES THEREOF” (BNH RESEARCH CO., LTD., priority 2022, published 2025)

Legend:
GluN2B = GluN2B protein expression by Western blot in primary cortical neuron cells; type: cell-based, mouse; settings: for Western blot results Mean (GluN2B expression): relative value, vehicle set to 1, primary cortical neurons treated for 24 hours
Experimental: Meanwhile, primary cortical neuron cells were isolated from cerebral cortices of 18-day-old mouse fetuses, incubated in prep media (composition (mM): NaCl 107.5, NaH2PO4 1, NaHCO333.5, glucose 11, HEPS 1%, penicillin-streptomycin 1%) containing 0.25% trypsin and DNasel for 30 minutes, dissociated into single cells, and seeded. Primary cortical neuron cells were grown in Neurobasal medium supplemented with 1% (v/v) B27, 1% penicillin (100 U/mL), streptomycin ([…]), and 1% Glutamax. Cells were maintained in a humidified atmosphere of 95% air and 5% CO2 at 37° C. Drug efficacy was evaluated after culturing primary cortical neuron cells for 14 days.
The amount of GluN2B reacted with the compound of the present disclosure was measured using Western blot. The fetal cerebral cortex was extracted from mice at 17 days of gestation, dissociated into single cells, cultured for 13 days, and treated with BnH drugs for 24 hours. The drug-treated cells were subjected to protein lysate preparation using RIPA protein lysis buffer containing protease and phosphatase inhibitors. The protein concentration was determined using a BCA protein assay kit (Pierce Biotechnology) using bovine serum albumin as a standard. Equal amounts of protein (20 μg per lane) were separated by electrophoresis on SDS-polyacrylamide gels at 90 V for 2 hours, then transferred from the SDS-polyacrylamide gel to PVDF membrane at 100 V for 1 hour. Then, primary reaction with GluN2B antibody (ab65783, Abcam) was performed at 4° C. for 1 day, washed three times at 10-minutes intervals with 1×PBT, and secondary reaction was performed with anti-mouse antibody (sc-2357, Santa Cruz) for 1 hour, followed by washing three times at 10-minutes intervals with 1×PBT. Western blotting was performed as described above to confirm GluN2B protein expression. Subsequently, each blot was re-probed using anti-β-actin antibody (sc-47778, Santa Cruz). Housekeeping protein B-actin was detected as a normalization control.
The increase and decrease of BnH12 series were confirmed by setting the vehicle to 1 (N for each group was 3 or more).
Using the experimental procedure described in Example 3, it was determined whether various BnH12 series compounds increase GluN2B expression, and the results are shown in Table 5. These in vitro experimental results are expressed as relative values to the group (vehicle) that was not treated with the compound, with the effect of the group set to 1.

293T cells = experiment: Cytotoxicity test (CCK-8 cell viability) in 293T cells; type: cell-based, human; settings: 293T cell line
Experimental: Human undifferentiated neuroblastoma cell line SH-SY5Y and human embryonic kidney cell line (HEK)-293T were purchased from Korean Cell Line Bank (Korea) and Takara (Japan), respectively. Cells were grown in HyClone Minimal Essential Medium (MEM) and Dulbecco's Modified Eagle Medium (DMEM), respectively, supplemented with 10% (v/v) fetal bovine serum (FBS), penicillin (100 U/mL), and streptomycin ([…]). Cells were maintained in a humidified atmosphere of 95% air and 5% CO2 at 37° C. Cells were passaged 10 times at maximum. Cells were dissociated using 0.05% trypsin-EDTA solution and the cells were seeded in new culture dishes for maintenance.
To examine the cytotoxicity of compounds described herein in human cell lines, SH-SY5Y and 293T cells were used. Approximately 8,000 cells (for 293T) and 15,000 cells (for SH-SY5Y) were plated per well of a 96-well plate (SPL Life Sciences Co., Ltd., Pocheon, Korea). After incubating at 37° C. for 24 hours in a humidified atmosphere containing 5% CO2, the culture medium was replaced by a series of concentrations of test compounds diluted in the corresponding culture medium.
The time of co-incubation was 24 hours and six replicates were made for each measurement. Finally, 10 μL of CCK-8 reagent (Dojindo Laboratories, Rockville, MD) was added to each well, and after incubation at 37° C. for 3 minutes, the OD at 450 nm was measured using a multifunction microplate reader (Tecan Infinite M200 Pro). These measurements were compared to that of a control and expressed as a percentage of the control to calculate cell viability. The IC50 value was calculated using SPSS software. To do this, the absorbance of the blank wells with only growth medium is subtracted from the values or the wells with cells. The readout value of background (vehicle) was set as a 100% viability, and then the percent viability for each test solution was calculated.
The data was presented as the mean value and standard error of the mean (S.E.M.). Statistical analysis was performed with the one-way ANOVA with Tukey's post hoc test (GraphPad Prism 5 software package, version 5.02, GraphPad Software Inc. USA). Significance was accepted at p<0.05.
The cytotoxicity of the compound was evaluated by treating cells with BnH12003 and measuring cell viability.
By treating cells with various BnH12 series compounds and measuring cell viability using the experimental procedure described in Example 2, the cytotoxicity of the compounds was evaluated.

Compound | GluN2B expression effect (in words) (GluN2B; compared to vehicle / other compounds, Table 5) | Western blot results Mean (GluN2B expression) (GluN2B) | Cell viability test results (CCK) 10 uM (293T cells) [%<] | Cell viability test results (CCK) 100 uM (293T cells) [%<]
6-Ethyl-1-(2-(4-(pyrimidin-5-yl)phenyl) acetyl) piperidine-3-carboxylic acid [BnH12097] | excellent effects | 2.625 | 90 | 85
C[C@H]1CC[C@@H](C(=O)O)CN1C(=O)Cc1ccc(-c2ccc(F)cc2)cc1 [BnH12002, (3R,6S)-1-(2-(4′-fluoro-8 1,l′-biphenyl9-4-yl)acetyl)-6-methylpiperidine-3-carboxylic acid] |  |  | 90 | 95
O=C(NO)[C@H]1CCCN1C(=O)Cc1ccc(-c2cncnc2)cc1 [BnH12015, (R)-N-hydroxy-1-(2-(4-(pyrimidin-5-yl)phenyl)acetyl) pyrrolidine-2-carboxamide] |  |  | 99 | 99
O=C(NO)[C@@H]1CCCN1C(=O)Cc1ccc(-c2cncnc2)cc1 [BnH12017, (S)-N-hydroxy-1-(2-(4-(pyrimidin-5-yl)phenyl)acetyl)pyrrolidine-2-carboxamide] |  | 1.448 | 95 | 80
C[C@H]1CC[C@@H](C(=O)O)CN1C(=O)Cc1ccc2nccnc2c1 [BnH12036, (3R,6S)-6-methyl-1-(2-(quinoxalin-6-yl)acetyl) piperidine-3-carboxylic acid] |  |  | 95 | 95
C[C@H]1CC[C@@H](C(=O)O)CN1C(=O)Cc1ccc2c(c1)OCCO2 [BnH12037] |  |  | 99 | 99
C[C@H]1CC[C@@H](C(=O)O)CN1C(=O)Cc1ccc(-c2ccccc2)cc1 [BnH12042] |  |  | 95 | 90
C[C@H]1CC[C@@H](C(=O)O)CN1C(=O)Cc1ccc(-c2ccncc2)cc1 [BnH12043, (3R,6S)-6-methyl-1-(2-(4-(pyridin-4-yl)phenyl)acetyl) piperidine-3-carboxylic acid] |  |  | 99 | 99
C[C@H]1CC[C@@H](C(=O)O)CN1C(=O)Cc1ccc(-c2ccccn2)cc1 [BnH12044, (3R,6S)-6-methyl-1-(2-(4-(pyridin-2-yl)phenyl)acetyl) piperidine-3-carboxylic acid] |  |  | 80 | 75
C[C@H]1CC[C@@H](C(=O)O)CN1C(=O)Cc1ccc(-c2ccnnc2)cc1 [BnH12045, (3R,6S)-6-methyl-1-(2-(4-(pyridazin-4-yl)phenyl)acetyl) piperidine-3-carboxylic acid] |  | 1.341 | 99 | 99
C[C@H]1CC[C@@H](C(=O)O)CN1C(=O)Cc1ccc(-c2ncc(F)cn2)cc1 [BnH12049, (3R,6S)-1-(2-(4-(5-fluoropyrimidin-2-yl)phenyl)acetyl)-6-methylpiperidine-3-carboxylic acid] |  |  | 90 | 85
C[C@H]1CC[C@@H](C(=O)O)CN1C(=O)Cc1ccc(-c2cnc(C3CC3)nc2)cc1 [BnH12052, (3R,6S)-1-(2-(4-(2-cyclopropylpyrimidin-5-yl)phenyl)acetyl)-6-methylpiperidine-3-carboxylic acid] |  |  | 80 | 75
C[C@H]1CC[C@@H](C(=O)O)CN1C(=O)Cc1ccc(-c2ccncn2)cc1 [BnH12054, (3R,6S)-6-methyl-1-(2-(4-(pyrimidin-4-yl)phenyl)acetyl) piperidine-3-carboxylic acid] |  |  | 99 | 99
C[C@H]1CC[C@@H](C(=O)O)CN1C(=O)Cc1ccc(-c2cccs2)cc1 [BnH12055, (3R,6S)-6-methyl-1-(2-(4-(thiophen-2-yl)phenyl)acetyl) piperidine-3-carboxylic acid] |  |  | 90 | 60
C[C@H]1CC[C@@H](C(=O)O)CN1C(=O)Cc1ccc(-c2ccco2)cc1 [BnH12056, (3R,6S)-1-(2-(4-(furan-2-yl)phenyl)acetyl)-6-methylpiperidine-3-carboxylic acid] |  |  | 95 | 90
C[C@H]1CC[C@@H](C(N)=O)CN1C(=O)Cc1ccc(-c2ncc(F)cn2)cc1 [BnH12059, (3R,6S)-1-(2-(4-(5-fluoropyrimidin-2-yl)phenyl)acetyl)-6-methylpiperidine-3-carboxamide] |  |  | 90 | 70
C[C@H]1CC[C@@H](C(=O)O)CN1C(=O)Cc1ccc(-c2ccc([N+](=O)[O-])cc2)cc1 [BnH12077, (3R,6S)-6-methyl-1-(2-(4'-nitro-[1,1'-biphenyl]-4-yl)acetyl)piperidine-3-carboxylic acid] |  |  | 99 | 60
C[C@H]1CC[C@@H](C(=O)O)CN1C(=O)c1ccc(-c2cccnc2)cc1 [BnH12080, (3R,6S)-6-methyl-1-(4-(pyridin-3-yl)benzoyl) piperidine-3-carboxylic acid] |  |  | 85 | 85
COc1ccc(-c2ccc(CC(=O)N3C[C@H](C(=O)O)CC[C@@H]3C)cc2)cn1 [BnH12081, (3R,6S)-1-(2-(4-(6-methoxypyridin-3-yl)phenyl)acetyl)-6-methylpiperidine-3-carboxylic acid] |  |  | 85 | 70
C[C@H]1CC[C@@H](C(=O)O)CN1C(=O)Cc1ccc(-c2ccc(C3CC3)nc2)cc1 [BnH12082, (3R,6S)-1-(2-(4-(6-cyclopropylpyridin-3-yl)phenyl)acetyl)-6-methylpiperidine-3-carboxylic acid] |  |  | 90 | 90
C[C@H]1CC[C@@H](C(=O)O)CN1C(=O)Cc1ccc(-c2ccc(C(F)(F)F)nc2)cc1 [BnH12083, (3R,6S)-6-methyl-1-(2-(4-(6-(trifluoromethyl)pyridin-3-yl)phenyl)acetyl) piperidine-3-carboxylic acid] |  |  | 95 | 75
Cc1ccc(-c2ccc(CC(=O)N3C[C@H](C(=O)O)CC[C@@H]3C)cc2)cn1 [BnH12084, (3R,6S)-6-methyl-1-(2-(4-(6-methylpyridin-3-yl)phenyl)acetyl) piperidine-3-carboxylic acid] |  |  | 80 | 70
C[C@H]1CC[C@@H](C(=O)O)CN1C(=O)Cc1ccc(-c2ccc(-c3ccccc3)nc2)cc1 [BnH12087, (3R,6S)-6-methyl-1-(2-(4-(6-phenylpyridin-3-yl)phenyl)acetyl) piperidine-3-carboxylic acid] |  |  | 85 | 45
